In ChEMBL document CHEMBL1201862, “PubChem BioAssay data set” (2004):
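Cultured in 96-well plates, cells were exposed to test compound for 48 hours across five concentrations. Abbreviation: GI50, concentration required for 50% inhibition of growth.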 Activity calls are given as the source filed them. No stated cut-off is given here; in the data, active = GI50 up to about 1.1 µM and inactive = higher.

How the values were obtained:
Assay in all cases: inhibition of tumour cell growth, NCI panel, 48 h
ACHN = tested on: ACHN
COLO 205 = tested on: COLO 205
HCT-116 = tested on: HCT-116
HCT-15 = tested on: HCT-15
KM12 = tested on: KM12
LOX IMVI = tested on: LOX IMVI
M14 = tested on: M14
NCI-H460 = tested on: NCI-H460
OVCAR-5 = tested on: OVCAR-5
SF-295 = tested on: SF-295
SK-MEL-28 = tested on: SK-MEL-28
SK-MEL-2 = tested on: SK-MEL-2
SN12C = tested on: SN12C
SR = tested on: SR
SW-620 = tested on: SW-620
T47D = tested on: T47D
U-251 = tested on: U-251
UO-31 = tested on: UO-31
HCC 2998 = tested on: HCC 2998

Row | Compound | GI50 (ACHN) | GI50 (COLO 205) | GI50 (HCT-116) | GI50 (HCT-15) | GI50 (KM12) | GI50 (LOX IMVI) | GI50 (M14) | GI50 (NCI-H460) | GI50 (OVCAR-5) | GI50 (SF-295) | GI50 (SK-MEL-28) | GI50 (SK-MEL-2) | GI50 (SN12C) | GI50 (SR) | GI50 (SW-620) | GI50 (T47D) | GI50 (U-251) | GI50 (UO-31) | GI50 (HCC 2998)
1 | O=C(O)c1cc(Cl)cc(Cc2cc(Cl)cc(C(=O)O)c2O)c1O | > 100 µM (inactive) | > 100 µM (inactive) | > 100 µM (inactive) | > 100 µM | > 100 µM (inactive) | > 100 µM (inactive) | > 100 µM (inactive) | > 100 µM (inactive) | > 100 µM (inactive) | > 100 µM (inactive) | > 100 µM (inactive) | > 100 µM (inactive) | > 100 µM (inactive) | > 100 µM (inactive) | > 100 µM (inactive) | > 100 µM (inactive) | > 100 µM (inactive) | > 100 µM (inactive) | –
2 | CC(C)(Oc1ccc(-c2cccc3ccccc23)cc1)C(=O)O | > 100 µM (inactive) | 71 µM (inactive) | > 100 µM (inactive) | 77.3 µM | 97.7 µM (inactive) | – | > 100 µM (inactive) | > 100 µM (inactive) | > 100 µM (inactive) | 60.4 µM (inactive) | > 100 µM (inactive) | > 100 µM (inactive) | 85.1 µM (inactive) | > 100 µM (inactive) | > 100 µM (inactive) | 80.2 µM (inactive) | > 100 µM (inactive) | > 100 µM (inactive) | > 100 µM (inactive)
3 | COc1cc(C(=O)N(Cc2cccnc2)C(=S)N(Cc2cccnc2)C(=O)c2cc(OC)c(OC)c(OC)c2)cc(OC)c1OC | > 100 µM (inactive) | 35 µM (inactive) | 31 µM (inactive) | 37.7 µM | 22.4 µM (inactive) | 30.7 µM (inactive) | 94.8 µM (inactive) | 94 µM (inactive) | > 100 µM (inactive) | > 100 µM (inactive) | > 100 µM (inactive) | – | 37.9 µM (inactive) | 48.3 µM (inactive) | 32.9 µM (inactive) | 34.9 µM (inactive) | – | 49.8 µM (inactive) | 24.3 µM (inactive)
4 | N#Cc1c(Cl)cccc1Oc1ccc(S(=O)(=O)/N=C(\NN)Nc2ccc(Cl)cc2)cc1 | 31.9 µM (inactive) | 15.6 µM (inactive) | 17.7 µM (inactive) | 34.4 µM | 19.5 µM (inactive) | 17.5 µM (inactive) | 22.9 µM (inactive) | 19.2 µM (inactive) | 28.5 µM (inactive) | 24.2 µM (inactive) | 31.8 µM (inactive) | 21.6 µM (inactive) | 25.2 µM (inactive) | 0.0177 µM (active) | 41.9 µM (inactive) | 20.1 µM (inactive) | 32 µM (inactive) | 25.5 µM (inactive) | –
5 | CCOC(=O)c1nc2cc(F)c(N3CCOCC3)cc2[nH]c1=O | > 100 µM (inactive) | > 100 µM (inactive) | > 100 µM (inactive) | > 100 µM | > 100 µM (inactive) | – | > 100 µM (inactive) | > 100 µM (inactive) | > 100 µM (inactive) | > 100 µM (inactive) | > 100 µM (inactive) | > 100 µM (inactive) | > 100 µM (inactive) | 36.3 µM (inactive) | > 100 µM (inactive) | > 100 µM (inactive) | 99.1 µM (inactive) | 65.3 µM (inactive) | > 100 µM (inactive)
6 | FC1C2=C(SC1(F)F)C1CCC2C1 (centres undefined) | > 100 µM (inactive) | > 100 µM (inactive) | > 100 µM (inactive) | > 100 µM | > 100 µM (inactive) | > 100 µM (inactive) | > 100 µM (inactive) | > 100 µM (inactive) | > 100 µM (inactive) | > 100 µM (inactive) | – | > 100 µM (inactive) | – | > 100 µM (inactive) | > 100 µM (inactive) | > 100 µM (inactive) | – | > 100 µM (inactive) | –
7 | CCC(C)N1CN(c2ccccc2)C2(CCN(CC3COc4ccccc4O3)CC2)C1=O (centres undefined) | 33.5 µM (inactive) | 17.7 µM (inactive) | 15.9 µM (inactive) | 19.7 µM | 18.1 µM (inactive) | 23.4 µM (inactive) | 20.2 µM (inactive) | – | > 10 µM (inactive) | 19 µM (inactive) | 39.7 µM (inactive) | – | 27.7 µM (inactive) | 17.9 µM (inactive) | 22.3 µM (inactive) | 16 µM (inactive) | 17.7 µM (inactive) | 10.8 µM (inactive) | 18.2 µM (inactive)
8 | COc1ccc(/C=N/NC(=S)Nc2cc(C)ccc2OC)cc1 | 37.2 µM (inactive) | 17 µM (inactive) | 29.2 µM (inactive) | 10 µM | 31.7 µM (inactive) | 43.8 µM (inactive) | 23.1 µM (inactive) | – | 16.9 µM (inactive) | 37.4 µM (inactive) | 34.8 µM (inactive) | 19.8 µM (inactive) | 25.1 µM (inactive) | 9.08 µM (inactive) | 34.7 µM (inactive) | 32.9 µM (inactive) | – | 37.9 µM (inactive) | –
9 | COc1ccc(-c2cc(-c3ccccc3)c3c(n2)-c2ccccc2NC(=O)C3)cc1 | 35.1 µM (inactive) | > 100 µM (inactive) | 25.5 µM (inactive) | 17.7 µM | 35.4 µM (inactive) | 65.6 µM (inactive) | 71 µM (inactive) | 25.9 µM (inactive) | > 100 µM (inactive) | 47.5 µM (inactive) | > 100 µM (inactive) | 32.7 µM (inactive) | 58.6 µM (inactive) | – | > 100 µM (inactive) | 74 µM (inactive) | 22.5 µM (inactive) | > 100 µM (inactive) | 53 µM (inactive)
10 | c1ccc(C2=NNC3c4ccccc4-c4ccccc4N3C2)cc1 (centres undefined) | 31.8 µM (inactive) | 18.4 µM (inactive) | 34 µM (inactive) | 48.4 µM | 37.1 µM (inactive) | 28.6 µM (inactive) | 29.2 µM (inactive) | 21.9 µM (inactive) | 99.8 µM (inactive) | 35.6 µM (inactive) | 35.6 µM (inactive) | 20.1 µM (inactive) | 35.3 µM (inactive) | 21.1 µM (inactive) | 33.4 µM (inactive) | 23.5 µM (inactive) | 26.5 µM (inactive) | 32.4 µM (inactive) | –
11 | Cc1nc(C)c(N2CCN([N+](=O)[O-])CC2)c(O)n1 | > 100 µM (inactive) | > 100 µM (inactive) | > 100 µM (inactive) | > 100 µM | > 100 µM (inactive) | > 100 µM (inactive) | > 100 µM (inactive) | > 100 µM (inactive) | – | > 100 µM (inactive) | > 100 µM (inactive) | – | > 100 µM (inactive) | > 100 µM (inactive) | > 100 µM (inactive) | > 100 µM (inactive) | > 100 µM (inactive) | > 100 µM (inactive) | > 100 µM (inactive)
12 | CC(=O)N(CCCCNC(=O)C(F)(F)F)CCCNC(=O)C(F)(F)F | > 100 µM (inactive) | > 100 µM (inactive) | > 100 µM (inactive) | > 100 µM | > 100 µM (inactive) | – | > 100 µM (inactive) | > 100 µM (inactive) | > 100 µM (inactive) | > 100 µM (inactive) | > 100 µM (inactive) | > 100 µM (inactive) | > 100 µM (inactive) | > 100 µM (inactive) | > 100 µM (inactive) | > 100 µM (inactive) | > 100 µM (inactive) | > 100 µM (inactive) | > 100 µM (inactive)
13 | Cc1c2ccccc2c(C2C3C(=O)N(c4ccc(Br)cc4)C(=O)C3ON2C(C(N)=O)c2ccccc2)c2ccccc12 (centres undefined) | 4.12 µM (inactive) | 1.77 µM (inactive) | 4.37 µM (inactive) | 3.88 µM | 4.11 µM (inactive) | 4.97 µM (inactive) | 5.69 µM (inactive) | 3.56 µM (inactive) | 5.6 µM (inactive) | 6.59 µM (inactive) | 17.9 µM (inactive) | 5.62 µM (inactive) | 5.3 µM (inactive) | – | 3.98 µM (inactive) | 3.18 µM (inactive) | 2.69 µM (inactive) | 10 µM (inactive) | 12.1 µM (inactive)
14 | c1cc2c(cc1C1=NCCN1)c1cc(C3=NCCN3)ccc1n2CC1CCCCC1 | > 100 µM (inactive) | 1.74 µM (inactive) | 12.9 µM (inactive) | > 100 µM | 8.73 µM (inactive) | 16.3 µM (inactive) | 33.6 µM (inactive) | 14.7 µM (inactive) | 22.1 µM (inactive) | 32.1 µM (inactive) | 10.4 µM (inactive) | 15.7 µM (inactive) | 14 µM (inactive) | 7.26 µM (inactive) | 20.4 µM (inactive) | 19.1 µM (inactive) | 6.58 µM (inactive) | 81.3 µM (inactive) | –
15 | O=C1/C(=C/C=C/c2ccccc2)N=C(c2ccccc2)N1c1ccc(S(=O)(=O)Nc2nccs2)cc1 | 17.8 µM (inactive) | 18.8 µM (inactive) | 29.6 µM (inactive) | 24.4 µM | 26.5 µM (inactive) | 21.8 µM (inactive) | 26.4 µM (inactive) | 25.8 µM (inactive) | 31.6 µM (inactive) | 33.5 µM (inactive) | – | 25.1 µM (inactive) | 30 µM (inactive) | 30.9 µM (inactive) | 35.1 µM (inactive) | 27.6 µM (inactive) | 17.9 µM (inactive) | 15.6 µM (inactive) | –
16 | C[N+](C)(CCCn1ccnc1[N+](=O)[O-])CCCn1ccnc1[N+](=O)[O-] | > 100 µM (inactive) | > 100 µM (inactive) | > 100 µM (inactive) | > 100 µM | > 100 µM (inactive) | > 100 µM (inactive) | > 100 µM (inactive) | > 100 µM (inactive) | > 100 µM (inactive) | > 100 µM (inactive) | > 100 µM (inactive) | > 100 µM (inactive) | > 100 µM (inactive) | > 100 µM (inactive) | > 100 µM (inactive) | > 100 µM (inactive) | > 100 µM (inactive) | > 100 µM (inactive) | –
